From US5434132A, “Neuropeptide antagonists” (Imperial Cancer Research Technology, Ltd., priority 1988, dated 1995)
Read-outs that look alike come from different tables or passages of the source. Non-standard residues stand in square brackets, D forms with d. Residues, ends and D or L forms follow the SMILES beside them.

Assays:
[1] = biological target: T1, bombesin/GRP receptor (Mus musculus, UniProt P21729); test: 125I-GRP binding to membrane preparations of Swiss 3T3 cells; parameters: species or system murine
T1 construct: Membrane protein (150 μg) prepared from Swiss 3T3 cells as described above; endogenous in cells; host or cells: Swiss 3T3 cells; membrane-enriched fraction prepared with 5 mM Mg2+
Procedure: Membrane preparation: Cultures in roller bottles were washed twice with 150 ml phosphate buffered saline (PBS) (0.14M NaCl, 5 mM KCl, 0.01M Na2 HPO4, 1.8 mM KH2 PO4; pH 7.2) at room temperature. The cells were then harvested at 4° C. by scraping into ice cold PBS containing 5 mM MgCl2, 1 mM [ethylenebis(oxyethylenenitrilo)]tetraacetic acid (EGTA), 1 mg/ml bacitracin, 10 ug/ml aprotonin, 1 mg/ml soybean trypsin inhibitor and 50 μM phenylmethylsulphonyl fluoride. All subsequent steps were carried out at 4° C. The cells were pelleted by centrifugation at 750 x g for 10 minutes and resuspended 5×10^6 /ml in solution A containing 50 mM 4-(2-Hydroxyethyl)-1-piperazineethanesulfonic acid (Hepes), 5 mM MgCl2, 1 mM EGTA, 1 mg/ml bacitracin, 10 μg/ml aprotonin, 1 mg/ml soybean trypsin inhibitor and 50 μM phenylmethylsulfonyl fluoride, adjusted to pH 7.4 with NaOH at 4° C. Cells were then disrupted using a Dounce homogeniser (A pestle) 75 strokes. The homogenate was centrifuged at 500 x g for 10 minutes to remove nuclear material and intact cells and the supernatant was centrifuged again at 30000 x g for 30 minutes. The resulting pellet, representing a membrane-enriched preparation was resuspended at a protein concentration of 5 to 10 mg/ml in solution A and stored in liquid nitrogen. For experiments, membranes were thawed and diluted to a concentration of 1 mg/ml with solution A.
Receptor binding assay: Binding assays were carried out in a total volume of 100 ul in binding medium containing 50 mM Hepes, 5 mM MgCl2, 1 mg/ml bacitracin and 1% bovine serum albumin (BSA), adjusted to pH 7.4 with NaOH, unless otherwise indicated. […] Non-specific binding was subtracted from the total binding to obtain specific binding. The membranes were incubated for either 10 minutes at 37° C. or 30 minutes: at 15° C. as indicated.
The binding reactions were terminated at the specified times by rapid filtration on GF/B glass fibre filters (Whatmann, 1.0 μm pore size). Each filter was washed five times with 5 ml of PBS containing 1% BSA at 4° C. (15 s total time) using a Millipore filtration apparatus. Before the addition of membranes the filters were soaked for 24 hours in 5% polyethylenimine at 4° C. and washed with 5 ml of PBS containing 1% BSA immediately prior to use. […] Radioactivity was determined with a Beckmann γ-counter.
When 1n[(Beq - Bt)/(BoLo - Beq Bt)]is plotted as a function of time k1 can be determined from the slope by the following relation k1 =slope x [Beg/(Beg^2 - BoLo)](36) where Bo and Lo are the initial concentrations of receptor and ligand respectively. Bt is the concentration of receptor-ligand complex at time t and Beg is its concentration at equilibrium. Equation (1) takes into account the decrease in free ligand concentration that occurs during the binding reaction.
The first order rate constant of dissociation was determined from the slope of the line obtained by plotting ln(Bt/Beg) as a function of time.
The reactions were terminated and specific binding determined as described in "Experimental Procedures".

[2] = biological target: T2, Mr 75,000-85,000 protein (Mus musculus, UniProt P21729); test: Chemical cross-linking (EGS) of 125I-GRP to the Mr 75,000-85,000 protein in Swiss 3T3 membranes; assay type: binding, murine; conditions: for 125I-GRP affinity labelling of the Mr 75,000-85,000 protein: 0.5 nM 125I-GRP, 37° C., 10 minutes, None 100
T2 construct: Membrane protein (150 μg) prepared from Swiss 3T3 cells as described above; endogenous in cells; host or cells: Swiss 3T3 cells; membrane-enriched fraction prepared with 5 mM Mg2+
Procedure: BSA was omitted from all solutions used in the cross-linking studies. At the end of the incubation the membranes were centrifuged at 1000 rpm for 1 minute in a MSE microfuge at room n temperature. The pellets were then resuspended in cross-linking medium containing 4 mM of the cross-linking reagent (EGS) and incubated at 37° C. or 15° C. for 5 minutes or 15 minutes respectively. The reaction was terminated by centrifugation for 1 minute followed by one wash with cross-linking medium and centrifugation. Samples were solubilised in 0.20 ml of 2× sample buffer, (0.2 M Tris-HCl pH 6.8, 10% (w/v) glycerol, 6% sodium dodecyl sulphate (SDS) (w/v), 4% β-mercaptoethanol (v/v), and 2 mM EDTA), immediately heated to 100° C. for 10 minutes and analysed by one dimensional electrophoresis.
SDS-Polyacrylaaide Gel glectrophoresis: Slab gel electrophoresis was performed using 8% acrylamide in the separating gel and 4% in the stacking gel and 0.1% SDS (37). After electrophoresis gels were stained, desrained and dried down onto paper for autoradiography with Fuji x-ray film. Dried gels were exposed for 2-4 days at -70° C. Autoradiograms were scanned using an LKB ultrascan XL densitometer; and the incorporation of radioactivity into the Mr 75,000-85,000 band was quantified using the Ultroscan XL internal digital integrator.
Following incubation at 37° C. for 10 minutes the membranes were pelleted by centrifugation and chemical cross-linking carried out as described in "Experimental Procedures" using 4 mM EGS. The samples were analyzed by SDS-PAGE and scanning densitometry of the autoradiograms as described in "Experimental Procedures".

[3] = test system: Swiss 3T3 cells
[4] = test system: Swiss 3T3 cells; conditions: references 4,12,13; cited from earlier work
[5] = test system: small cell lung cancer (SCLC) cell lines; test: Growth in vitro of small cell lung cancer (SCLC) cell lines; conditions: 5 of 5 cell lines tested: H69, H82, H128, H417 and UCH25
[6] = biological target: T3, vasopressin receptor (Mus musculus, UniProt Q62463); conditions: references 4,12,13; cited from earlier work
T3 construct: endogenous in cells; host or cells: Swiss 3T3 cells

[7] = 10 min, read-out: 125I-GRP affinity labelling of the Mr 75,000-85,000 protein
[8] = addition at 1μM, 0.5 nM 125I-GRP, 37° C., 10 minutes, None 305 ± 9, mean±SEM, n=3
[9] = 0.5 nM 125I-GRP, 15° C., 30 minutes

T2 sequence (P21729 whole entry): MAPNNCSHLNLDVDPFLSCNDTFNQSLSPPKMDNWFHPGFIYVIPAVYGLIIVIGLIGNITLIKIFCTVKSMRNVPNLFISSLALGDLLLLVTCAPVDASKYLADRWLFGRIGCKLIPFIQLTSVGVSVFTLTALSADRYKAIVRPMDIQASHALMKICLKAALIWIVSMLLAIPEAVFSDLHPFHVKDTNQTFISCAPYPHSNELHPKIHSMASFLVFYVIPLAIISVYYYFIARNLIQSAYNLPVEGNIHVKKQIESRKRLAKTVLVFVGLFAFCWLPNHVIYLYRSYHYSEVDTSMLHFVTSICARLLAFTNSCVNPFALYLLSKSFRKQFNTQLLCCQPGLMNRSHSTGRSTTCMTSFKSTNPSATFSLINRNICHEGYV
T1 sequence (P21729 whole entry): as above
T3 sequence (Q62463 whole entry): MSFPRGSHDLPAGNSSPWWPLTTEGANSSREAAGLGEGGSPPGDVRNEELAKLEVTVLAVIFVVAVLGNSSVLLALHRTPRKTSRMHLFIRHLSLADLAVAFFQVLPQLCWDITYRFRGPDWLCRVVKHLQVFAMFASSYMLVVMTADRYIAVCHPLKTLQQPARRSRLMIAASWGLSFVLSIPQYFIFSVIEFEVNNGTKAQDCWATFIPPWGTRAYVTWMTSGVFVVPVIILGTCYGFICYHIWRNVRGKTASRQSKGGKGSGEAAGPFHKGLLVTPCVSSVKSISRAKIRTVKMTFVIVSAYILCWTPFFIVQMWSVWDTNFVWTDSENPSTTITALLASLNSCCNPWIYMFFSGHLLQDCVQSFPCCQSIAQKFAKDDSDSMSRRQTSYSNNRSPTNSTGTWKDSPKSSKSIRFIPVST

CSCC[C@H](NC(=O)[C@H](CC(C)C)NC(=O)[C@H](Cc1cnc[nH]1)NC(=O)CNC(=O)[C@@H](NC(=O)[C@H](C)NC(=O)[C@@H](N)Cc1c[nH]c2ccccc12)C(C)C)C(N)=O [bombesin (8-14)]
IC50 [1]: 4 µM
remaining activity at 10 µM [2, 7]: 5 ± 2%

vasoactive intestinal peptide [VIP]
specific binding of 125I-GRP to membranes [1, 8]: 353 ± 10 fmole/mg protein

CSCC[C@H](NC(=O)[C@H](CC(C)C)NC(=O)[C@H](Cc1cnc[nH]1)NC(=O)CNC(=O)[C@@H](NC(=O)[C@H](C)NC(=O)[C@H](Cc1c[nH]c2ccccc12)NC(=O)[C@H](CCC(N)=O)NC(=O)[C@H](CC(N)=O)NC(=O)CNC(=O)[C@H](CC(C)C)NC(=O)[C@H](CCCN=C(N)N)NC(=O)[C@H](CCC(N)=O)NC(=O)[C@@H]1CCC(=O)N1)C(C)C)C(N)=O [bombesin]
specific binding of 125I-GRP to membranes [1]: 7 ± 0.2 fmole/mg protein
remaining activity at 0.1 µM [2, 7]: 5 ± 1%

CSCC[C@H](NC(=O)[C@H](Cc1ccccc1)NC(=O)[C@H](Cc1cnc[nH]1)NC(=O)CNC(=O)[C@@H](NC(=O)[C@H](C)NC(=O)[C@H](Cc1c[nH]c2ccccc12)NC(=O)[C@H](CC(C)C)NC(=O)[C@H](CC(N)=O)NC(=O)CN)[C@@H](C)O)C(N)=O [neuromedin B]
IC50 [1]: 0.18 µM
remaining activity at 1 µM [2, 7]: 7 ± 2%

substance K
specific binding of 125I-GRP to membranes [1, 8]: 314 ± 5 fmole/mg protein

litorin
inhibition of specific binding of 125I-GRP to membrane preparations ([1]; concentration-dependent manner): inhibited
125I-GRP affinity labelling of the Mr 75,000-85,000 protein ([2]; addition at 100 nM): 3 ± 1 % of maximum

CC(C)C[C@H](NC(=O)[C@H](CC(C)C)NC(=O)[C@@H](Cc1c[nH]c2ccccc12)NC(=O)[C@H](Cc1ccccc1)NC(=O)[C@@H](Cc1c[nH]c2ccccc12)NC(=O)[C@H](CCC(N)=O)NC(=O)[C@@H](Cc1ccccc1)NC(=O)[C@@H]1CCCN1C(=O)[C@H](CCCCN)NC(=O)[C@@H]1CCCN1C(=O)[C@H](N)CCCN=C(N)N)C(N)=O [antagonist D, D-Arg-Pro-Lys-Pro-D-Phe-Gln-D-Trp-Phe-D-Trp-Leu-Leu-NH2] (H-[dR]PKP[dF]Q[dW]F[dW]LL-NH2)
IC50 [1, 9]: 7 µM

C[C@H](N)C(=O)NCC(=O)N[C@H]1CSSC[C@@H](C(=O)O)NC(=O)[C@H](CO)NC(=O)[C@H]([C@@H](C)O)NC(=O)[C@H](Cc2ccccc2)NC(=O)[C@H]([C@@H](C)O)NC(=O)[C@H](CCCCN)NC(=O)[C@H](Cc2c[nH]c3ccccc23)NC(=O)[C@H](Cc2ccccc2)NC(=O)[C@H](Cc2ccccc2)NC(=O)[C@H](CC(N)=O)NC(=O)[C@H](CCCCN)NC1=O [Somatostatin, somatostatin]
specific binding of 125I-GRP to membranes [1, 8]: 308 ± 8 fmole/mg protein

Insulin: insulin purchased from Sigma
specific binding of 125I-GRP to membranes ([1]; addition at 1.5 μM, 0.5 nM 125I-GRP, 37° C., 10 minutes, None 305 ± 9): 332 ± 6 fmole/mg protein
125I-GRP affinity labelling of the Mr 75,000-85,000 protein ([2]; addition at 1.5 μM): 113 ± 3 % of maximum

CCCC(=O)O[C@@H]1[C@@H](C)[C@@]2(O)[C@@H](C=C(CO)C[C@]3(O)C(=O)C(C)=C[C@@H]23)[C@@H]2C(C)(C)[C@]12OC(=O)CCC [PBt2, phorbol 12,13-dibutyrate]
specific binding of 125I-GRP to membranes ([1]; addition at 400 nM, 0.5 nM 125I-GRP, 37° C., 10 minutes, None 305 ± 9): 305 ± 9 fmole/mg protein
125I-GRP affinity labelling of the Mr 75,000-85,000 protein ([2]; addition at 400 nM): 111 ± 2 % of maximum

PDGF: Recombinant platelet derived growth factor c-sis
specific binding of 125I-GRP to membranes ([1]; addition at 15 nM, 0.5 nM 125I-GRP, 37° C., 10 minutes, None 305 ± 9): 341 ± 9 fmole/mg protein
125I-GRP affinity labelling of the Mr 75,000-85,000 protein ([2]; addition at 15 nM): 104 ± 1 % of maximum

CC(C)C[C@H](NC(=O)[C@H](CC(C)C)NC(=O)[C@@H](Cc1c[nH]c2ccccc12)NC(=O)[C@H](Cc1ccccc1)NC(=O)[C@@H](Cc1c[nH]c2ccccc12)NC(=O)[C@H](CCC(N)=O)NC(=O)[C@H](CCC(N)=O)NC(=O)[C@@H]1CCCN1C(=O)[C@H](CCCCN)NC(=O)[C@H]1CCCN1C(=O)[C@H](N)CCCNC(=N)N)C(N)=O [antagonist A, D-Arg-D-Pro-Lys-Pro-Gln-Gln-D-Tro-Phe-D-Trp-Leu-Leu-NH2] (H-[dR][dP]KPQQ[dW]F[dW]LL-NH2)
IC50 [1, 9]: 38 µM
IC50 [3]: 90 µM
inhibition of vasopressin-stimulated DNA synthesis [4]: inhibit
concentrations effective in inhibiting growth of SCLC [5]: 50 to 150 µM
inhibition of [3H]vasopressin binding [6]: inhibit

NC(=O)CC[C@@H]1NC(=O)[C@H](Cc2ccccc2)NC(=O)[C@H](Cc2ccc(O)cc2)NC(=O)[C@@H](N)CSSC[C@@H](C(=O)N2CCC[C@H]2C(=O)N[C@@H](CCCN=C(N)N)C(=O)NCC(N)=O)NC(=O)[C@H](CC(N)=O)NC1=O [Vasopressin, vasopressin]
specific binding of 125I-GRP to membranes [1, 8]: 353 ± 10 fmole/mg protein
remaining activity at 1 µM [2, 7]: 102 ± 1%

EGF: epidermal growth factor
specific binding of 125I-GRP to membranes ([1]; addition at 40 nM, 0.5 nM 125I-GRP, 37° C., 10 minutes, None 305 ± 9): 305 ± 6 fmole/mg protein
125I-GRP affinity labelling of the Mr 75,000-85,000 protein ([2]; addition at 40 nM): 108 ± 1 % of maximum
